Patent publication US20050214376A1, “Hydrogel-containing medical articles and methods of using and making the same” (priority 2003, published 2005)

How the values were obtained:
human skin [1] = details: 107 subjects
Description: Subjects fulfilled specific inclusion criteria including not being pregnant or breastfeeding, being over 18 years old, having healthy skin, and not having used any dermatological or cosmetic preparation on the test area within 5 days before the beginning of the study.
Briefly, the tested hydrogels were applied under occlusion on the outer aspect of the upper arm for a defined time. The applications were repeated 9 times over a period of 3 consecutive weeks, a duration necessary for the possible induction of an immune response. The irritancy potential was evaluated and compared to the irritancy potential of the standard, SLS. After a two-week rest period with no treatment, the tested hydrogels were applied under occlusion to the induction site and to a virgin site on the volar side of the underarm for a defined period of time to trigger a possible immune response.
The final pH of the hydrogels was adjusted to about 5.5.
Possible skin reactions to the products were scored according to the scale reproduced in Table 5 above.
In summary, the test product is considered to have a low sensitization potential if none of the subjects reported a grade 2 or higher dermal response on days 38 to 40 and no more than two subjects reported a grade 1 dermal response on days 38 to 40. A moderate sensitization potential is assigned if a maximum of 2 subjects reported a grade 2 or higher dermal response on days 38 to 40 and a maximum of 4 subjects reported a grade 1 response on days 38 to 40. A high sensitization potential is assigned if 3 or more subjects reported a grade 2 or higher dermal response on days 38 to 40 and 5 or more subjects reported a grade 1 response on days 38 to 40.
The cumulative irritancy score represents the sum of the irritancy scores assigned on days 3, 5, 8, 10, 12, 15, 17, 19, and 22. […] An irritancy score was assigned to each induction and virgin site on days 36, 38, 39 and 40, and their respective scores were added up separately to produce the cumulative irritancy score presented in the fourth column of Table 10. The fifth and sixth columns indicate the number of subjects that experienced a grade 2 or greater response on each of days 38, 39 and 40, and the number of subjects that experienced a grade 1 response on each of days 38, 39, and 40.

human skin [2] = details: both, in vivo
[3] = Uptake rates of active agents into hydrogel samples; type: physicochemical; details: for time to reach the same concentration in the hydrogel as the uptake solution: 1 mm hydrogel samples, methylene blue 1 ppm, p-nitrophenol 0.4 wt. %
Description: Uptake solutions of methylene blue (1 ppm) and p-nitrophenol (0.4 wt. %) were prepared. […] The hydrogels were then carefully blotted of excess solution and were each transferred into a second beaker containing 30 ml of a 10 mM phosphate buffer solution with a pH of 6 to equilibrate.
The hydrogels were continuously agitated to ensure that the equilibrium state was reached. The uptake of p-nitrophenol and methylene blue was assumed to correspond to the amount that was released into the washing buffer solution. […] Methylene blue was similarly measured at 655 nm and the calibration curve was in the range of 0.0025 ppm to 3 ppm.

Compound	Cumulative Irritancy Score (human skin [1]; 22-day induction phase)	Number of reacting subjects (human skin [1]; 22-day induction phase)	Type of Reactivity (human skin [1]; 22-day induction phase)	subjects with slight glazed appearance and/or marked glazing (human skin [1]; induction phase)	C: Glazing with peeling & cracking, number of subjects (human skin [2])	D: Glazing with fissures, number of subjects (human skin [2])	E: Film of dried serious exudate covering all or part of the patch site, number of subjects (human skin [2])	F: Small petechial erosions and/or scabs, number of subjects (human skin [2])	Maximum single score (human skin [2])	Maximum sum (human skin [2])	Minimum single score (human skin [2])	Minimum sum (human skin [2])	N (reacting subjects) (human skin [2])	Slight itch, number of subjects (human skin [2])	Sum of scores for dermal reactions (human skin [2])	time to reach the same concentration in the hydrogel as the uptake solution [3]	concentration in hydrogel relative to the initial uptake solution ([3]; within an hour) [times]
CCCCCCCCCCCCOS(=O)(=O)[O-].[Na+] [Positive Control, sodium lauryl sulphate]	21	11	Minimal erythema	20	0	0	0	0	1	3	0	0	19	0	23.00	–	–
CN(C)c1ccc2nc3ccc(=[N+](C)C)cc-3sc2c1 [methylene blue]	–	–	–	–	–	–	–	–	–	–	–	–	–	–	–	less than 1.50 minutes	6
O=[N+]([O-])c1ccc(O)cc1 [p-nitrophenol]	–	–	–	–	–	–	–	–	–	–	–	–	–	–	–	about 15 minutes	–
